Assay results reported in EP4640686A1, “DEGRADER FOR DEGRADING BRD PROTEIN AND PHARMACEUTICAL COMPOSITION CONTAINING SAME” (Innocure Therapeutics, Inc., priority 2022, dated 2024).
Where two headings read alike, the source gives them in different places.

What was measured:
Type in all cases: cell-based
[1] = test system: RPMI2650; assay: Cancer cell antiproliferative activity / cell viability in RPMI2650 cells (72 h treatment)
Protocol: The human breast cancer cell line [MDA-MB-231] was cultured in RPMI medium with the addition of 10% fetal bovine serum, penicillin [100U/ml], and streptomycin [[…]]. The synthesized compounds were prepared with a 10 mM or 50 mM raw material solution dissolved in DMSO [dimethyl sulfoxide], and were diluted sequentially and treated. [RPMI2650] and [SNU2972] were cultivated under specific conditions.
To observe cell growth inhibition, cells were dispensed in a concentration of 5,000 cells/well in a 96-well plate, and samples prepared at various concentrations were treated for 72 hours. The IC50 value (the concentration of the compound achieving 50% cytostaticism) is the average value of the results of three independent measurements.

[2] = molecular target: BRD4 (Homo sapiens, UniProt O60885); assay: BRD4 protein degradation by western blotting in RPMI2650 cells (24 h treatment); set-up: To evaluate the resolution of PROTAC for BRD4 expressed in cells; endogenous in cells; host or cells: RPMI2650; conditions: RPM12650, read-out: BRD4 (DC50)
Protocol: (§1) The synthesized compounds were prepared with a 10 mM or 50 mM raw material solution dissolved in DMSO [dimethyl sulfoxide], and were diluted sequentially and treated. [RPMI2650] and [SNU2972] were cultivated under specific conditions.
(§2) To evaluate the resolution of PROTAC for BRD4 expressed in cells, cells were dispensed in a concentration of 5 X 10^5 cells/well in a 6-well plate, and the sample was treated for 24 hours. […] Protein expression was normalized based on the expression value of β or GAPDH, and protein expression in each sample was measured as % based on 100% of samples treated with 0.1% DMSO vehicle. Protein expression was quantified using Image J program. Change in protein expression volume by compound treatment (DC50: concentration of compounds where 50% protein expression inhibition is achieved) was calculated using the GraphicPad Prism 8.0 software.

[3] = molecular target: T1, BRD4-NUT (Homo sapiens, UniProt O60885+Q86Y26); assay: BRD4-NUT protein degradation by western blotting in RPMI2650 cells (24 h treatment); conditions: RPM12650, read-out: BRD4-NUT (DC50)
T1 construct: endogenous in cells; host or cells: RPMI2650
Protocol: as §1, §2

[4] = Homo sapiens, RPMI-2650, RPM12650, read-out: Cell Viatility (IC50)

| IC50 ([1]; RPM12650, read-out: Cell Viatility (IC50)) [µM] | Structure (SMILES) | IC50 [1, 4] [µM] | DC50 [2] [µM] | DC50 [3] [µM] |
| --- | --- | --- | --- | --- |
|  | CC[C@@H]1c2nnc(C)n2-c2cnc(Nc3ccc(C(=O)N4CCC(N5CCN(c6ccc7c(=O)n(C8CCC(=O)NC8=O)nc(C)c7c6)CC5)CC4)cc3OC)nc2N1CC1CCCCC1 (stereo partly drawn) [ICT-0001556, 3-(6-(4-(1-(4-(((R)-5-(cyclohexylmethyl)-4-ethyl-1-methyl-4,5-dihydro-[1,2,4]triazolo[4,3-f]pteridine-7-yl)amino)3-methoxybenzoyl)piperidine-4-yl)piperazine-1-yl)4-methyl-1-oxopthalazine-2(1H)-yl)piperidine-2,6-dione] | > 1 | < 0.1 | < 0.1 |
|  | CC[C@@H]1c2nnc(C)n2-c2cnc(Nc3ccc(C(=O)N4CC(CN5CCN(c6ccc7c(=O)n(C8CCC(=O)NC8=O)nc(C)c7c6)CC5)C4)cc3OC)nc2N1CC1CCCCC1 (stereo partly drawn) [ICT-0001557, 3-(6-(4-((1-(4-(((R)-5-(cyclohexylmethyl)-4-ethyl-1-methyl-4,5-dihydro-[1,2,4]triazolo[4,3-f]pteridine-7-yl)amino)3-methoxybenzoyl)azetidine-3-yl)methyl)piperazine-1-yl)4-methyl-1-oxopthalazine-2(1H)-yl)piperidine-2,6-dione] | > 1 | < 0.1 | > 1 |
|  | CC[C@@H]1c2nnc(C)n2-c2cnc(Nc3ccc(C(=O)NCCNc4cccc5cnn(C6CCC(=O)NC6=O)c(=O)c45)cc3OC)nc2N1CC1CCCCC1 (stereo partly drawn) [ICT-0001558, 4-(((R)-5-(cyclohexylmethyl)-4-ethyl-1-methyl-4,5-dihydro-[1,2,4]triazolo[4,3-f]pteridine-7-yl)amino)N-(2-((3-(2,6-dioxopiperidin-3-yl)4-oxo-3,4-dihydroptalazine-5-yl)amino)ethyl)-3-methoxybenzamide] | > 1 | < 0.1 | < 0.1 |
|  | CCC1c2nnc(C)n2-c2cnc(Nc3ccc(C(=O)NC4CCN(CCN5CCN(c6ccc7c(=O)n(C8CCC(=O)NC8=O)nc(C)c7c6)CC5)CC4)cc3OC)nc2N1CC1CCCCC1 [ICT-0001560, 4-{[(4S)-5-(cyclohexylmethyl)-4-ethyl-1-methyl-4H,5H-[1,2,4]triazolo[4,3-f]pteridine-7-yl]amino}-N-[1-(2-{4-[2-(2,6-dioxopiperidine-3-yl)-4-methyl-1-oxo-1,2-dihydroptalazine-6-yl]piperazine-1-yl}ethyl)piperidine-4-yl]-3-methoxybenzamide] | > 1 | < 0.1 | < 0.1 |
|  | CCC1c2nnc(C)n2-c2cnc(Nc3ccc(C(=O)NC4CCN(CCN5CCN(c6ccc(NC7CCC(=O)NC7=O)cc6F)CC5)CC4)cc3OC)nc2N1CC1CCCCC1 [ICT-0001561, 4-{[(4S)-5-(cyclohexylmethyl)-4-ethyl-1-methyl-4H,5H-[1,2,4]triazolo[4,3-f]pteridine-7-yl]amino}-N-{1-[2-(4-{4-[(2,6-dioxopiperidin-3-yl)amino]-2-fluorophenyl}piperazine-1-il)ethyl]piperidine-4-yl}-3-methoxybenzamide] | > 1 | < 0.1 | < 0.1 |
| 0.1 to 1 | CC[C@H]1c2nnc(C)n2-c2cnc(Nc3ccc(C(=O)NC4CCN(CCC5CCN(c6ccc(NC7CCC(=O)NC7=O)cc6F)CC5)CC4)cc3OC)nc2N1CC1CCCCC1 (stereo partly drawn) [ICT-0001562, 4-{[(4S)-5-(cyclohexylmethyl)-4-ethyl-1-methyl-4H,5H-[1,2,4]triazolo[4,3-f]pteridine-7-yl]amino}-N-{1-[2-(1-{4-[(2,6-dioxopiperidin-3-yl)amino]-2-fluorophenyl}piperidine-4-yl)ethyl]piperidine-4-yl}-3-methoxybenzamide] |  | > 1 | > 1 |
|  | CC[C@@H]1c2nnc(C)n2-c2cnc(Nc3ccc(C(=O)NC4CCN(C(=O)CN5CCN(c6ccc7c(=O)n(C8CCC(=O)NC8=O)nc(C)c7c6)CC5)CC4)cc3OC)nc2N1CC1CCCCC1 (stereo partly drawn) [ICT-0001563] | > 1 | < 0.1 | < 0.1 |
